Measured values from patent US12311044B2, “Antimicrobial composition” (priority 2018, dated 2025).

test system: total salivary bacterial pool (mixed oral bacteria); assay: Malodour assay using lead acetate paper (H2S production by pooled salivary bacteria); type: cell-based; design: concentration or dose not given beside the values; settings: pooled human saliva bacteria OD 0.4, 96 well plate, incubated overnight, ΔE of lead acetate paper; actives at the weight % of the composition
Protocol: Malodour Assay Using Lead Acetate Paper:
The following tests were done to find out the efficacy of different compositions inside and outside the scope of the present invention:
The early morning saliva from different volunteer (5 samples) were pooled and centrifuged (Eppendorf refrigerated centrifuge 5810R at 6300 rcf/11.5 G) for 10 minutes. After that, the Supernatant which is saliva and the pellet—mixed bacterial pool (oral bacteria e.g. Streptococcus. mitis, Streptococcus. mutans, Nisseria. flava, Rothia. dentocariosa etc.,) was separated. The saliva was then filter sterilized by passing through the 50 mL conical 0.2 μm PES sterile filter (VWR lab products limited). The OD of total salivary bacterial pool culture was adjusted to 0.4 by spectrophotometer (Shimadzu UV Spectrophotometer—UV-1800) for higher pool of bacteria which is required for the assay. The assay was set up in a 96 well plate with respective culture control and DMSO control. The total reaction volume was 200 μL/well which comprises of the following: 45 μl 0.1% L-cysteine-HCl (Sigma, C1276)+TSB (Bacto, 211825, 30 g/L)+50 μL sterile Saliva+75 μL Culture+30 μL active (as per the weight % disclosed in the following table 2)+sterile distilled water.
Then the actives at desired concentration were added and the remaining volume was adjusted with sterile distilled water. After that, the wells were mixed well, and lead acetate filter was placed above the wells to capture the H2S released by the bacteria. […] The intensity of the spots was measured using a LAB reader (Minolta spectrophotometer CM 2600D). The colour reading was expressed in LAB, L* defines lightness, A* denotes the red/green value and B* the yellow/blue value. Then ΔL, ΔA and ΔB is calculated using this formula ΔL=L control−L sample, ΔA=L control−L sample, AB=L control−L sample. The total colour difference which is expressed as ΔE is calculated using this formula ΔE=√{square root over (((ΔL)^2+(ΔA)^2+(ΔB)^2))}. […] The total fold change of H2S inhibition over the control was calculated for the individual actives.

Row | Structure (SMILES) | Fold Change (total fold change of H2S inhibition over the control)
1 | C=CCc1ccc(O)c(-c2ccc(O)c(CC=C)c2)c1 [B, honokiol] | 1.6 ± 1.8
2 | C=CCc1ccc(O)c(-c2ccc(O)c(CC=C)c2)c1 [C, honokiol] | 1.5 ± 1.8
3 | CC(O)CN(CCN(CC(C)O)CC(C)O)CC(C)O (stereo not drawn) [Example A, tetrahydroxypropyl ethylenediamine] | 0.9±0.3
